Laboratory results: patent US11685719B2, “Pyridinone MK2 inhibitors and uses thereof” (Xinthera, Inc., priority 2021, dated 2023)

Key:
[1] = target: p38a/MK2 (Homo sapiens (Human), UniProt P49137+Q16539); experiment: biochemical; details: 10-point 1:3 dilution, top dose 1 μM; 10 μM ATP, 2 h incubation; read-out: p38a/MK2 (1 μM) Enzyme pIC50 (converted)
In short: (§1)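 Recombinant N-terminal GST-tagged MK2 (F46-H400) or PRAK (M1-Q471), expressed in E. coli, were activated by p38. Activity read as phosphorylation of FITC-conjugated HSP27 peptide. IC50 taken as half-maximal inhibition of activation from 10-point 1:3 dilutions, top dose 1 or 10 μM for MK2 and 300 μM for PRAK.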

[2] = target: p38a/PRAK (Homo sapiens (Human), UniProt Q16539); experiment: biochemical; details: 10-point 1:3 dilution, top dose 300 μM; 10 μM ATP, 2 h incubation; read-out: p38a/PRAK Enzyme pIC50 (converted)
p38a/PRAK, sequence (Q16539 whole entry): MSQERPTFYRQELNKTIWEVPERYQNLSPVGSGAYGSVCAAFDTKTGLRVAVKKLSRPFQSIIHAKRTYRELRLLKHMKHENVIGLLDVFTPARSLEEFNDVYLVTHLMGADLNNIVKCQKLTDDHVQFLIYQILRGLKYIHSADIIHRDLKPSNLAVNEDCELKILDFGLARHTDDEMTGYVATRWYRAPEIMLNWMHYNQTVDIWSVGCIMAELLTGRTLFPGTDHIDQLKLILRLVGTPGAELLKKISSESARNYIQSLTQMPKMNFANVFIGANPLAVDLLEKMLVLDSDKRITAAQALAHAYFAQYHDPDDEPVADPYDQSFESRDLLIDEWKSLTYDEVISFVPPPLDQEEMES
In short: as §1

p38a/MK2, sequence (Q16539 whole entry): as above
p38a/MK2, sequence (P49137 46-400): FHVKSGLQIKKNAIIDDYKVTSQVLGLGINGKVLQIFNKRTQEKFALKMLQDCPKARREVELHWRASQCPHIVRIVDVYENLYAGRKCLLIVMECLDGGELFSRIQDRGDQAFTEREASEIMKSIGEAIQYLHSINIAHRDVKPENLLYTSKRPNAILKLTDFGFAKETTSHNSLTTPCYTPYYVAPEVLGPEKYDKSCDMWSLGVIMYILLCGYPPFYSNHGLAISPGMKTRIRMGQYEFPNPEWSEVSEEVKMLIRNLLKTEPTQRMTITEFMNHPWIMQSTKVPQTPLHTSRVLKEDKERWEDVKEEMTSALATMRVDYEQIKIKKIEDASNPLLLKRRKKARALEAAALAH

IC50 [1] [µM] | IC50 [2] [µM] | Compound
0.00251 | 5.01 | Cc1cnc(-n2ccnc(C(C)(C)O)c2=O)cc1-n1c(C)cc(OCc2ncc(F)cc2Cl)c(Cl)c1=O (single isomer, unassigned) [Example 24B, rel-3-chloro-4-[(3-chloro-5-fluoropyridin-2-yl)methoxy]-2′-[3-(2-hydroxypropan-2-yl)-2-oxopyrazin-1-yl]-5′,6-dimethyl-[1,4′-bipyridin]-2-one]
0.00398 | 6.31 | Cc1cnc(-n2cccc(C(C)(C)O)c2=O)cc1-n1c(C)nc(OCc2ncc(F)cc2F)c(Cl)c1=O (single isomer, unassigned) [Example 25A, rel-4′-{5-chloro-4-[(3,5-difluoropyridin-2-yl)methoxy]-2-methyl-6-oxopyrimidin-1-yl}-3-(2-hydroxypropan-2-yl)-5′-methyl-[1,2′-bipyridin]-2-one]
0.631 | > 316 | Cc1cnc(-n2cccc(C(C)(C)O)c2=O)cc1-n1c(C)nc(OCc2ncc(F)cc2F)c(Cl)c1=O (single isomer, unassigned) [Example 25B, rel-4′-{5-chloro-4-[(3,5-difluoropyridin-2-yl)methoxy]-2-methyl-6-oxopyrimidin-1-yl}-3-(2-hydroxypropan-2-yl)-5′-methyl-[1,2′-bipyridin]-2-one]
0.00251 | 3.16 | [2H]C([2H])(Oc1cc(C)n(-c2cc(-n3ccc(F)c(C(C)(C)O)c3=O)ncc2C)c(=O)c1Cl)c1ncc(F)cc1F (single isomer, unassigned) [Example 26A, rel-3-chloro-4-[(3,5-difluoropyridin-2-yl)(2H2)methoxy]-2′-[4-fluoro-3-(2-hydroxypropan-2-yl)-2-oxopyridin-1-yl]-5′,6-dimethyl-[1,4′-bipyridin]-2-one]
> 0.1 | > 316 | [2H]C([2H])(Oc1cc(C)n(-c2cc(-n3ccc(F)c(C(C)(C)O)c3=O)ncc2C)c(=O)c1Cl)c1ncc(F)cc1F (single isomer, unassigned) [Example 26B, rel-3-chloro-4-[(3,5-difluoropyridin-2-yl)(2H2)methoxy]-2′-[4-fluoro-3-(2-hydroxypropan-2-yl)-2-oxopyridin-1-yl]-5′,6-dimethyl-[1,4′-bipyridin]-2-one]
> 0.1 | > 316 | Cc1cnc(-n2ccn(C(C)(C)CO)c2=O)cc1-n1c(C)cc(OCc2ncc(F)cc2F)c(Cl)c1=O (single isomer, unassigned) [Example 27A, rel-3-chloro-4-[(3,5-difluoropyridin-2-yl)methoxy]-2′-[3-(1-hydroxy-2-methylpropan-2-yl)-2-oxoimidazol-1-yl]-5′,6-dimethyl-[1,4′-bipyridin]-2-one]
0.0126 | 0.794 | Cc1cnc(-n2ccn(C(C)(C)CO)c2=O)cc1-n1c(C)cc(OCc2ncc(F)cc2F)c(Cl)c1=O (single isomer, unassigned) [Example 27B, rel-3-chloro-4-[(3,5-difluoropyridin-2-yl)methoxy]-2′-[3-(1-hydroxy-2-methylpropan-2-yl)-2-oxoimidazol-1-yl]-5′,6-dimethyl-[1,4′-bipyridin]-2-one]
0.001 | 3.16 | [2H]C([2H])(Oc1cc(C)n(-c2cc(-n3ccnc(C(C)(C)O)c3=O)ncc2C)c(=O)c1Cl)c1ncc(C)cc1F (single isomer, unassigned) [Example 28A, rel-3-chloro-4-[(3-fluoro-5-methylpyridin-2-yl)(2H2)methoxy]-2′-[3-(2-hydroxypropan-2-yl)-2-oxopyrazin-1-yl]-5′,6-dimethyl-[1,4′-bipyridin]-2-one]
> 0.1 | > 316 | [2H]C([2H])(Oc1cc(C)n(-c2cc(-n3ccnc(C(C)(C)O)c3=O)ncc2C)c(=O)c1Cl)c1ncc(C)cc1F (single isomer, unassigned) [Example 28B, rel-3-chloro-4-[(3-fluoro-5-methylpyridin-2-yl)(2H2)methoxy]-2′-[3-(2-hydroxypropan-2-yl)-2-oxopyrazin-1-yl]-5′,6-dimethyl-[1,4′-bipyridin]-2-one]
